Reference: patent US20070032477A1, “Pteridine derivatives useful for making pharmaceutical compositions” (priority 2003, published 2007)

Tests used:
[1] = test system: B16BL/6 melanomasarcoma cells in C57BL/6 mice; test: Inhibition of the metastasis of melanoma cells in mice; assay type: in vivo; conditions: for proportion of mice having metastasis: inguinal and/or para-aortic lymph nodes
Method: C57BL/6 mice were injected with 1.5×10^6 B16BL/6 melanomasarcoma cells subcutaneously in the foot path and were divided, three days later, into 4 groups: • a control 1 group of 6 mice receiving only vehicle 3 times a week; • a control 2 group of 5 mice receiving a lethal dose of TNF (15 μg, subcutaneously) 3 times a week; • a group 3 receiving the pteridine derivative of example 17 alone 3 times a week at 20 mg/kg • a group 4 of 7 mice receiving the pteridine derivative of example 17 in an amount of 20 mg/kg intraperitenously on days 3, 4, and 5 and also receiving TNF (15 μg, subcutaneously) on day 5. This combined treatment with TNF and the pteridine derivative of example 17 was continued for 2 weeks.
Reduction of tumor size is also true in mice of group 3, although to a lesser extent (198 mm^2).
All mice of control group 2 died within the very first days of treatment, whereas mortality was 3/7 in mice of group 4.
At the end of experiment, it was looked macroscopically at black metastasis in inguinal and/or para-aortic lymphoneuds in all tumor bearing groups of mice. The proportions of mice having metastasis were: • 4/5 mice in control group 1, • 0/4 mice in group 4, and • 2/4 in group 3.

[2] = test system: TNBS-induced colitis in C57 BL/6 mice; test: Trinitrobenzenesulfonate-induced colitis test in mice (Example 209); assay type: in vivo
Method: C57 BL/6 mice (4-5 weeks) were obtained from M&B (Denmark), bred under standard pathogen-free conditions and maintained in the certified animal facility of the University Hospital Gasthuisberg, Catholic University of Leuven (Belgium). Experiments were approved by the local Ethical Committee of Animal Experimentation. Mice were sensitized twice 10 days and 5 days before rectal challenge. For sensitization, a 2×2 cm field of the abdominal skin was shaved, and 100 μl of 5 mg trinitrobenzenesulfonate (hereinafter referred as TNBS) in 50% ethanol solution was applied. On the day of challenge, mice were first lightly anesthetized with metofane. Subsequently TNBS (1 mg in 50% ethanol) was administered per rectum via a round-tip needle equipped with a 1-ml syringe. The tip of the needle was inserted so that the tip was about 3.5 to 4 cm proximal to the anal verge and TNBS was injected with a total volume of 100 μl. To ensure distribution of TNBS within the entire colon and cecum, mice were held in a vertical position for 1 minute after the injection.
The compound of example 176 (2-amino-6-(3,4-dimethoxyphenyl)-4-[N-(4-methyl-phenyl)-piperazin-1-yl]pteridine) was given to the mice by daily gavage at the dose of 20 mg/kg (400 μg in 100 μl H2O). Control mice were treated with 100 μl H2O only. Body weights of all animals were recorded daily in order to follow the development of inflammatory colitis over a period of 10 days.
Both macroscopic and microscopic histology evaluations were performed as follows. Mice were sacrificed at day 2 by cervical […], the colon was excised and was immediately examined visually, and damage was scored on a 0-12 scale. Colon sections were then fixed in 6% formalin and embedded in paraffin, cut into sections, and then stained with hematoxylin and eosin. Stained sections were examined for evidence of colitis using as criteria the presence of cell infiltration, elongation and/or distortion of crypts, crypt abscesses, reduction in goblet cell number, frank ulceration, and oedema formation.
MPO activity was measured as follows. Two days after intracolonic injection of TNBS, 50 mg colon was removed, homogenised and sonicated on ice. Samples were frozen in liquid nitrogen and subsequently thawed in a water bath at 37° C., each step lasted 3 minutes and the procedure was repeated for two cycles. After centrifugation, an aliquot of the supernatant was then allowed to react with a solution of tetra-methyl-benzidine (1.6 mM) and 0.1 mM H2O2. The rate of change in absorbance was measured spectrophotometrically at 460 nm. MPO activity was defined as the quantity of enzyme degrading 1 μmole of peroxide/minute at 37° C. and was expressed in units per gram weight of wet tissue. Sample enzyme activity was measured from a standard curve of known MPO unit activity (assay sensitivity 5×10^−7 units per well).
Quantitative Reverse Transcriptase (RT)-PCR for cytokine mRNA was performed as follows: part of the colon tissues, removed on day 2 after TNBS application, was immediately frozen in liquid nitrogen after dissection and stored at −70° C. until extraction of total RNA using a method well known in the art. A constant amount of 1 μg of total RNA was used for oligo-(dT)-primed cDNA synthesis (Ready-to-go-kit, commercially available from Pharmacia, Sweden). After 90 minutes at 37° C., the reverse transcriptase was inactivated by incubating the cDNA samples for 5 minutes at 95° C. The amount of cDNA was quantified by real-time RT-PCR using specific primers for β-actin and TNF, with the ABI Prism 7700 Sequence Detectin System (SDS) commercially available from Applied Biosystems (California). PCR was performed in a total volume of 25 μl, containing 5 μl cDNA and 20 μl mix with the TaqMan® Universal PCR Master Mix (2×) (Applied Biosystems) combined with 300 nM of the primer and 100 nM of the probe. […]

[3] = Plasma levels after oral administration in healthy mice; assay type: in vivo, C57BL/6 mice
Method: Each group of 6 mice received the indicated dose at time point 0 and were bled at 1, 3 and 5 hours after compound administration. Quantification was performed using a calibration curve of known compound concentrations spiked in control serum.
The plasma levels of the tested compound (example 176) was evaluated in C57BL/6 mice 8-10 weeks old Harlan, weighing 18.6-22.0 g after oral administration of 20, 10, 5 and 1 mg/kg, respectively (n=6 per dose). The tested compound (example 176) was dissolved in water to the appropriate concentration in order to deliver a constant gavage volume of 10 μl/g of body weight. Blood was collected by eye bleeding with heparinized capillaries at 1, 3, and 5 hours after dosing from each animal. The plasma fraction was immediately separated by centrifugation for 2 minutes at 12,000 g and stored at −80° C. until analysis. Each plasma sample was spiked with internal standard followed by the addition of 4 volumes of methanol. The samples were kept for 30 minutes on ice prior to centrifugation (10 minutes at 12,000 g) in order to remove precipitated proteins. The supernatant was analyzed for the presence of the tested compound (example 176), using LC/MS/MS. As standard for the bio-analysis, the tested compound (example 176) was diluted stepwise; each dilution was added to control plasma; additionally spiked with internal standard, giving rise to standard curves from 200 to 40,000 nM.

[4] = group 4: example 17 20 mg/kg i.p. combined with TNF 15 μg s.c.
[5] = daily gavage 20 mg/kg, versus control mice

circulating concentration (peak serum level) ([3]; 20 mg/kg oral, one hour after administration) | peak serum levels with increasing doses ([3]; oral 1, 5, 10, 20 mg/kg, one hour after administration) | SMILES | tumor size ([1]; group 3: example 17 alone 3 times a week at 20 mg/kg) [mm^2] | proportion of mice having metastasis ([1]; group 3: example 17 alone) | mortality [1, 4] | tumor size [1, 4] [mm^2] | proportion of mice having metastasis ([1]; group 4: example 17 combined with TNF) | recovery of original body weight earlier than control mice ([2]; daily gavage 20 mg/kg) | microscopic score ([2]; daily gavage 20 mg/kg, day 2) | average macroscopic score ([2]; daily gavage 20 mg/kg, day 2, 0-12 scale) | tissue MPO activity in colon ([2]; daily gavage 20 mg/kg, two days after TNBS) [U/g] | decrease of tissue MPO activity [2, 5] [fold] | reduction in average macroscopic score [2, 5] [%] | mRNA for other cytokines (IFN-γ and IL-18) in colon ([2]; day 2, compared to control mice) | cytokine mRNA level for TNF in colon ([2]; day 2, ratio to β-actin multiplied by 10^6) | Anti-TNBS antibody (IgG1 and IgG2a) levels ([2]; serum day 10, compared to control mice) | serum level 5 hours after administration compared with TNF-alpha assay IC50 ([3]; 20 mg/kg oral) | serum levels after 5 hours compared with TNF assay IC50 ([3]; all lower doses (10, 5 and 1 mg/kg oral))
– | – | COc1ccc(-c2cnc3nc(N)nc(N4CCN(C(=O)COc5ccccc5)CC4)c3n2)cc1OC [Example 17, 2-amino-4-[(N-phenoxyacetyl)-piperazin-1-yl]-6-(3,4-dimethoxy-phenyl)pteridine] | 198 | 2/4 | 3/7 | 120 | 0/4 | – | – | – | – | – | – | – | – | – | – | –
approximately 1 μM | dose-dependent increase | COc1ccc(-c2cnc3nc(N)nc(N4CCN(c5ccc(C)cc5)CC4)c3n2)cc1OC [Example 176, 2-amino-6-(3,4-dimethoxyphenyl)-4-((4-methylphenyl)-piperazin-1-yl)pteridine] | – | – | – | – | – | at least 4 days | 5.7±0.6 | 6.2±0.4 | 6.7±1.4 | 2 | 30 | no difference | 18.1±8.5 | similar | still above the IC50 value of the TNF-alpha assay | lower than the IC50 value in the TNF assay
